Measurements taken from publication PMC6195434 (Environmental science & technology, 2018).
Read-outs that look alike come from different tables or passages of the source.

Columns and labels:
RyR1 [1] = target: T1, RyR1 (Oryctolagus cuniculus, UniProt P11716); settings: previous data; cited from earlier work
SERCA1a = SERCA1a (Oryctolagus cuniculus, UniProt P04191); experiment: biochemical; type: biochemical, New Zealand White rabbits; settings: for inhibition at 10 µM: read-out: SERCA1a inhibition; for activity toward SERCA1a: Figure 5G
[2] = tested on: microsomal (JSR) membrane vesicles; experiment: Microsomal Ca2+ fluxes and Ca2+-induced Ca2+ release; type: biochemical, New Zealand White rabbits
RyR1 [3] = target: T1, RyR1; experiment: Equilibrium [3H]Ry binding analysis on RyR1-enriched microsomal membranes; parameters: species or system New Zealand White rabbits; settings: for activity in enhancing [3H]Ry binding to RyR1: concentration-response, efficacy at 10 μM, Figure 3A, B; for RyR1 inhibitory potency compared with 6 / decrease of apparent activation potency relative to 6: Figure 3C table insert; for maximum efficacy relative to 6: higher maximum efficacy at 50 μM compared to that reached by 6 at 1 μM; for decrease of apparent activation potency relative to 6: less potent activator than 6
[4] = tested on: Platynereis dumerilii embryos; settings: cited from earlier work
[5] = tested on: CHO (Chinese hamster ovary) cells; settings: cited from earlier work
[6] = at 2 μM, baseline = binding in presence of Veh alone, p < 0.05 vs Veh
[7] = 5 or 10 μM, initial 60 s release rate, vesicles loaded with 4 × 45 nmole Ca2+
[8] = expanded concentration range, Figure 3C

T1 sequence (P11716 whole entry): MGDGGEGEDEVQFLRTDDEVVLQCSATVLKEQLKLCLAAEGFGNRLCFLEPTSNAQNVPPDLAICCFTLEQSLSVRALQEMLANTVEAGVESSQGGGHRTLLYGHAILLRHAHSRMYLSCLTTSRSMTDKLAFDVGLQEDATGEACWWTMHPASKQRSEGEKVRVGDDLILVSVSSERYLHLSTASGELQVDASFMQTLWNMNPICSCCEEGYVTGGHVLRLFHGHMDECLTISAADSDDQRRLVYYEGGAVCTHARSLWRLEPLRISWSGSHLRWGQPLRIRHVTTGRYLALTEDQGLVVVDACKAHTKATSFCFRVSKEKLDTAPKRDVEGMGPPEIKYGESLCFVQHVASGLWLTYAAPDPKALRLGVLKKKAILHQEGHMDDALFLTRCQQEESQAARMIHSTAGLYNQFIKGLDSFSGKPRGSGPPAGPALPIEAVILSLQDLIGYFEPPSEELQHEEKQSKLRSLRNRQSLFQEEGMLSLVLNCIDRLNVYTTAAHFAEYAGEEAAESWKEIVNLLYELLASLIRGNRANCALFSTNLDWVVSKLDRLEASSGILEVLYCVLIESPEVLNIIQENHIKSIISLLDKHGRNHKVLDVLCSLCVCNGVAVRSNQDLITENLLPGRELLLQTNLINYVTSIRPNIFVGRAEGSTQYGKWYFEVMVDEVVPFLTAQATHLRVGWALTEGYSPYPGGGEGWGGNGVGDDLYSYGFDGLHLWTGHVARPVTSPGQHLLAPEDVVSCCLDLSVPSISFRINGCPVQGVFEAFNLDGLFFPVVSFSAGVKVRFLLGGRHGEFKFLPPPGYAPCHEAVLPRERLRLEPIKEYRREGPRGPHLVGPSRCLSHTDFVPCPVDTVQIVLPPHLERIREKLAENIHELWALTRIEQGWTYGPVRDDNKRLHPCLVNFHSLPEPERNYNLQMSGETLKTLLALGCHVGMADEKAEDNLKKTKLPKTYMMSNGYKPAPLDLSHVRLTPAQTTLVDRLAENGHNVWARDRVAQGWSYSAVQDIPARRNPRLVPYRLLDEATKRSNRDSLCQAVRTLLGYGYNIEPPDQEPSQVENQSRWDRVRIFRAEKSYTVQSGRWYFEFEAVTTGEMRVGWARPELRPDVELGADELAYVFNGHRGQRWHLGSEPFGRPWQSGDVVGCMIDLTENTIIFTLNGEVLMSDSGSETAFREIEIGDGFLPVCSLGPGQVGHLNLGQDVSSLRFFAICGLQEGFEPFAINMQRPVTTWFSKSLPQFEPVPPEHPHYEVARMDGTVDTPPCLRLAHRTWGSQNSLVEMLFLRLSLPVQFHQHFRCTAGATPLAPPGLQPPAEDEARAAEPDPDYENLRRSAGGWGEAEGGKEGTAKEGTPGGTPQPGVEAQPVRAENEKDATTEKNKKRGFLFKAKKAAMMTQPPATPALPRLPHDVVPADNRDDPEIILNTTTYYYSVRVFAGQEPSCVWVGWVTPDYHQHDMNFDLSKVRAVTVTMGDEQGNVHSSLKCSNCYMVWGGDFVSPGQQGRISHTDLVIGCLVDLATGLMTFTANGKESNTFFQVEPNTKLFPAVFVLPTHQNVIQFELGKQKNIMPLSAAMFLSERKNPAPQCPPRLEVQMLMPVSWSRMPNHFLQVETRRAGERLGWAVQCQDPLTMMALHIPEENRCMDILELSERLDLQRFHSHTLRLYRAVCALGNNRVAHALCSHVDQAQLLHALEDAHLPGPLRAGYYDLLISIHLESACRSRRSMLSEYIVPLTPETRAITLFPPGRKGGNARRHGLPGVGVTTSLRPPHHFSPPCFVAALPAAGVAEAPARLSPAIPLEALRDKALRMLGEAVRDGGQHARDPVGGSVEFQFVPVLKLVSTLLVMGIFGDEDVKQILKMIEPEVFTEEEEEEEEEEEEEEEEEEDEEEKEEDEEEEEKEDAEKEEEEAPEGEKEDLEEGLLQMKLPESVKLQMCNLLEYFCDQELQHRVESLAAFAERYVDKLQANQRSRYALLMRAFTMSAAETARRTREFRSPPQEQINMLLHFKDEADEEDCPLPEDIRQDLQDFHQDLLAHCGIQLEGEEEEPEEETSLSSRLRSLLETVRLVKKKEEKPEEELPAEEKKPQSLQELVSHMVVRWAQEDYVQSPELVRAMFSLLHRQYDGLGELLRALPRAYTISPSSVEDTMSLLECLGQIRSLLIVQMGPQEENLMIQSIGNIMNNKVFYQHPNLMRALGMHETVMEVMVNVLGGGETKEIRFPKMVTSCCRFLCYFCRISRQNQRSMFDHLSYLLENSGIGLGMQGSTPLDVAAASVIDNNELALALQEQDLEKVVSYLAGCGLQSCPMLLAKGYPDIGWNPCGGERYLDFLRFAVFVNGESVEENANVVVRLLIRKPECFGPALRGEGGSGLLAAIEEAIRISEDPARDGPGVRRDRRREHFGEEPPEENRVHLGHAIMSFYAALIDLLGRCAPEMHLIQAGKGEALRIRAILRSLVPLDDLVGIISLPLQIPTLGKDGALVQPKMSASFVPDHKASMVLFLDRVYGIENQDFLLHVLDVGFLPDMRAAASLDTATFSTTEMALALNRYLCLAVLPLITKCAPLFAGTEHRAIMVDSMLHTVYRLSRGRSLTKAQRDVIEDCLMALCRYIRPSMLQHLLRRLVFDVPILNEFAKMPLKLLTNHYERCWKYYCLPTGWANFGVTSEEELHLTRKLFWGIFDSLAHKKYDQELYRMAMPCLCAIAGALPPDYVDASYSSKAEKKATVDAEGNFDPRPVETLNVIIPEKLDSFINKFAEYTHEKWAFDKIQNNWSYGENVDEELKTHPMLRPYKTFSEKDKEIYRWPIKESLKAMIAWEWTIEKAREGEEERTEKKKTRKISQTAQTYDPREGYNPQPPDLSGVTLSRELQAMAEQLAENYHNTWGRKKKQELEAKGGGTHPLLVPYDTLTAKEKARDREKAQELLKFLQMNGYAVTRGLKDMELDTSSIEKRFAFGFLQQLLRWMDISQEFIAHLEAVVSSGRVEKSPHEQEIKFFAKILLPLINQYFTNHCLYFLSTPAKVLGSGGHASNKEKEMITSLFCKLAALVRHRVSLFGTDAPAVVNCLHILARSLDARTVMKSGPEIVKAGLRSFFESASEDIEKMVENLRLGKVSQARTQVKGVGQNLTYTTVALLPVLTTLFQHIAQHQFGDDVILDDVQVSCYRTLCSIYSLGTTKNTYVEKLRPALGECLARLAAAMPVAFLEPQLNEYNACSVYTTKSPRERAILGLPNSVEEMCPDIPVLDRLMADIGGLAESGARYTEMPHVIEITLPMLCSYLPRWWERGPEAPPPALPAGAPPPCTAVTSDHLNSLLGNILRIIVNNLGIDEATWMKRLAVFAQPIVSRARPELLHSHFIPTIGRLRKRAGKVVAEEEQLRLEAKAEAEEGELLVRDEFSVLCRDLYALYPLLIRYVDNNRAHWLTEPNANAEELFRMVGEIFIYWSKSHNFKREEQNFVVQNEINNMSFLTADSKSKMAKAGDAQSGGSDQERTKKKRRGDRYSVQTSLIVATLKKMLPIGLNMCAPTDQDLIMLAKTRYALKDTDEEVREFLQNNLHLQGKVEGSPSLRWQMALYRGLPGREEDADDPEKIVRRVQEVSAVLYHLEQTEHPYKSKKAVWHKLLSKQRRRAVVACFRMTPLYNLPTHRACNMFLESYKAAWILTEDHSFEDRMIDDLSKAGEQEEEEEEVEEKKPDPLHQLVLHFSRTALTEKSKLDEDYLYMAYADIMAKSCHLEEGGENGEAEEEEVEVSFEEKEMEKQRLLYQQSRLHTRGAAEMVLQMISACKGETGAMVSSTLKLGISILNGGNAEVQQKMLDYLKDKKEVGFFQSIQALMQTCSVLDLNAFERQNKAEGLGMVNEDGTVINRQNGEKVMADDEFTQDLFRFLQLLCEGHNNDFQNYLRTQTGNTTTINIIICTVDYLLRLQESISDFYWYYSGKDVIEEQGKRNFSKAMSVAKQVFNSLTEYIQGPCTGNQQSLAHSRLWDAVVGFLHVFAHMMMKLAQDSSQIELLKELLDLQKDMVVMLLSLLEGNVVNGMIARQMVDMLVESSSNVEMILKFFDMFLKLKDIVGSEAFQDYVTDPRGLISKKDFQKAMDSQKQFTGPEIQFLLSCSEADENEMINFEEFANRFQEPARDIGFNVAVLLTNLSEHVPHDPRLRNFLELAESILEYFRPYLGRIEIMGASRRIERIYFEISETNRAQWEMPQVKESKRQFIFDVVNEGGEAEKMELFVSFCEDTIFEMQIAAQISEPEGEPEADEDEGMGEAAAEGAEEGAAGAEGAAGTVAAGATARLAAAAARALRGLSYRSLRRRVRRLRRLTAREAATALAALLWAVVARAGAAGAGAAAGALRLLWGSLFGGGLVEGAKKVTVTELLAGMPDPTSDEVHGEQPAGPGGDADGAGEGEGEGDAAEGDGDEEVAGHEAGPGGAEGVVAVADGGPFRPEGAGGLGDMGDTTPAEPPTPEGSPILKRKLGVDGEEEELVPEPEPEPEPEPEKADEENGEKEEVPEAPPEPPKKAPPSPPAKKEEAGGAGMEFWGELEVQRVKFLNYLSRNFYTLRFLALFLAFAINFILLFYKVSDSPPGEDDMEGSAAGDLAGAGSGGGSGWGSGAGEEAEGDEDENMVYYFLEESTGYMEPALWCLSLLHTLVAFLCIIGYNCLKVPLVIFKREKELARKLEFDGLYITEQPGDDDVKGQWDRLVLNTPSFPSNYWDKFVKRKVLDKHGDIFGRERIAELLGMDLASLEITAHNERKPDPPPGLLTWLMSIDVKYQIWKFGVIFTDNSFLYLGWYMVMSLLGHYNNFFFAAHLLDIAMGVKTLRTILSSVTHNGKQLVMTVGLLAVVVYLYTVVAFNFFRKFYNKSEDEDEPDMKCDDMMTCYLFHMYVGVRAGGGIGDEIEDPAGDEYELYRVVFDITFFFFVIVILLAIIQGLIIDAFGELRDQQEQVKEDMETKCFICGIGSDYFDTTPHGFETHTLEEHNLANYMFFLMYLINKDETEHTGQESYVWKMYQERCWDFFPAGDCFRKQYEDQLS
T1 sequence (P62943 2-108 partner limits assumed): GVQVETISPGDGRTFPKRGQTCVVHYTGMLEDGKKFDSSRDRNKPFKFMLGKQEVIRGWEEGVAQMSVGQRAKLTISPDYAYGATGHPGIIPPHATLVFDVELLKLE

Brc1ccc(Oc2cc(Br)ccc2Br)c(Br)c1 [BDE-49]
mode of action toward RyR1 (RyR1 [1]): monotonic

Oc1cc(Br)c(Oc2ccc(Br)cc2Br)cc1Br [Compound 4-OH-BDE-49, 4′hydroxy-2,2′,4,5′-tetrabromodiphenyl ether]
mode of action toward RyR1 (RyR1 [1]): biphasic

O=C1NC(=O)C(Br)=C1Br [Compound 6, 2,3-dibromomaleimide]
SERCA1a inhibition (SERCA1a): without inhibition of SERCA1a
concentration at which SERCA1a inhibition was detected (only the highest tested) (SERCA1a): 10 µM
inhibition at 10 µM (SERCA1a): 50%
Ca2+-induced Ca2+ release rate vs control [2]: significantly higher rates of release than control
net release of accumulated Ca2+ from loaded microsomal vesicles [2]: failed to trigger net Ca^2+ efflux
sensitizing influence on calcium-induced calcium release [2]: did not reach statistical significance
EC50 (RyR1 [3]): 0.36 µM
IC50 (RyR1 [3]): 3 µM
concentration at which RyR1 inhibitory phase was detected (RyR1 [3]): < 5 µM
concentration that maximally activated RyR1 (RyR1 [3]): 0.6−1.0 μM
enhancement of [3H]Ry binding to RyR1 compared to baseline (RyR1 [3]): ≥ 1.5 fold
mode of modulation of RyR1 (RyR1 [3]): biphasic

Clc1[nH]c2ccccc2c1Cl [Compound 13, 2,3-dichloroindole]
enhancement of [3H]Ry binding to RyR1 compared to baseline (RyR1 [3]; [6]): ≥ 1.5 fold

Brc1[nH]c2ccccc2c1Br [Compound 14, 2,3-dibromoindole]
inhibition at 10 µM (SERCA1a): 60%
net release of accumulated Ca2+ from loaded microsomal vesicles [2, 7]: triggered dose-dependent Ca^2+ efflux
enhancement of [3H]Ry binding to RyR1 compared to baseline (RyR1 [3]; [6]): ≥ 1.5 fold

Oc1c(Br)cc(Oc2c(Br)cc(Br)cc2Br)cc1Br [Compound 18, 4′-hydroxy-2,3′,4,5′,6-pentabromodiphenyl ether]
SERCA1a inhibition (SERCA1a; at 2.0 μM): > 80%
SERCA1a inhibition (SERCA1a; at 10 μM): ~ 90%
net release of accumulated Ca2+ from loaded microsomal vesicles [2, 7]: triggered dose-dependent Ca^2+ efflux
enhancement of [3H]Ry binding to RyR1 compared to baseline (RyR1 [3]; [6]): ≥ 1.5 fold

c1cc[nH]c1 [Compound 24, pyrrole]
activity toward SERCA1a (SERCA1a): inactive
activity in enhancing [3H]Ry binding to RyR1 (RyR1 [3]): inactive

Brc1c[nH]c(Br)c1Br [Compound 26, 2,3,4-tribromopyrrole]
activity toward SERCA1a (SERCA1a): inactive
net release of accumulated Ca2+ from loaded microsomal vesicles [2, 7]: failed to trigger net release
activity in enhancing [3H]Ry binding to RyR1 (RyR1 [3]): inactive

CCOC(=O)c1cc(Br)c[nH]1 [Compound 27, ethyl-4-bromopyrrole-2-carboxylate]
activity toward SERCA1a (SERCA1a): inactive
net release of accumulated Ca2+ from loaded microsomal vesicles [2, 7]: failed to trigger net release
activity in enhancing [3H]Ry binding to RyR1 (RyR1 [3]): inactive

CN1C(=O)C(Br)=C(Br)C1=O [Compound 28, 2,3-dibromo-N-methylmaleimide]
enhancement of [3H]Ry binding to RyR1 compared to baseline (RyR1 [3]; [6]): ≥ 1.5 fold
mode of modulation of RyR1 (RyR1 [3]; [8]): biphasic

Brc1[nH]c(Br)c(Br)c1Br [Compound 31, tetrabromopyrrole]
SERCA1a inhibition (SERCA1a; at 10 μM): 80%
net release of accumulated Ca2+ from loaded microsomal vesicles [2, 7]: triggered dose-dependent Ca^2+ efflux
developmental toxicity [4]: potent developmental toxicity
RyR1 inhibitory potency compared with 6 (RyR1 [3]): weaker inhibitors than 6
enhancement of [3H]Ry binding to RyR1 compared to baseline (RyR1 [3]; [6]): ≥ 1.5 fold
mode of modulation of RyR1 (RyR1 [3]; [8]): biphasic
maximum efficacy relative to 6 (RyR1 [3]): 2.5 fold
decrease of apparent activation potency relative to 6 (RyR1 [3]): 68 fold

Brc1cc(Br)c(Br)[nH]1 [Compound 34, 2,3,5-tribromopyrrole]
inhibition at 10 µM (SERCA1a): 48%
net release of accumulated Ca2+ from loaded microsomal vesicles [2, 7]: triggered dose-dependent Ca^2+ efflux
cytotoxicity [5]: cytotoxic
genotoxicity [5]: genotoxic
RyR1 inhibitory potency compared with 6 (RyR1 [3]): weaker inhibitors than 6
enhancement of [3H]Ry binding to RyR1 compared to baseline (RyR1 [3]; [6]): ≥ 1.5 fold
mode of modulation of RyR1 (RyR1 [3]; [8]): biphasic
maximum efficacy relative to 6 (RyR1 [3]): 2.5 fold
decrease of apparent activation potency relative to 6 (RyR1 [3]): 107 fold

Hexabromobipyrroles [Compound 25]
SERCA1a inhibition (SERCA1a; at 2.0 μM): > 80%
SERCA1a inhibition (SERCA1a; at 10 μM): ~ 90%
net release of accumulated Ca2+ from loaded microsomal vesicles [2, 7]: triggered dose-dependent Ca^2+ efflux
loading capacity of calcium into microsomal vesicles ([2]; concentration-dependent, Figure SI3): diminished the loading capacity
enhancement of [3H]Ry binding to RyR1 compared to baseline (RyR1 [3]; [6]): ≥ 1.5 fold
